Data on one compound can be found in publication PMC3955700 (Bioorganic & medicinal chemistry letters, 2013).

The experiment has as its system brain / choroid plexus uptake. The experiment can be described thus: PET imaging in cynomolgus monkey. The experiment is classed as in vivo.

For the compound `Cl.O=C(Cc1ccc(OC2CCNCC2)cc1OCCF)N1CCC(N2C(=O)CCc3ccccc32)CC1` [Compound 1, 1-(1-(2-(2-(2-fluoroethoxy)-4-(piperidin-4-yloxy)phenyl)acetyl)piperidin-4-yl)-3,4-dihydroquinolin-2(1H)-one], the “effect of blocking on [18F]1 uptake” value (5 mg/kg of 1 given 30 min prior to [18F]1) is reported as “increase of overall brain activity, primarily in the region of the choroid plexus”. For the same compound, under “5 mg/kg of 1 given 45 min after [18F]1”, the “effect of chase on [18F]1 choroid plexus uptake” value is given as “uptake within the choroid plexus was completely removed”.
